Measured values published in US7384629B2, “Biological control of nematodes with Hirsutella minnesotensis” (Regents of the University of Minnesota, priority 2000, dated 2008).
Where two headings read alike, the source gives them in different places.

Columns and labels:
Hirsutella rhossiliensis [1] = conditions: for Growth rate mm-in-diam, on agar: named vitamin excluded from medium with all other vitamins; for Growth rate mm-in-diam, on agar / Sporulation 10^3/cm^2, on agar / growth in liquit culture (visual rating): 5 weeks; for Spore germination %, on agar / Sporulation 10^3/cm^2, on agar / growth in liquit culture (visual rating): named vitamin excluded
Hirsutella rhossiliensis [2] = assay: Effect of nitrogen source on growth, sporulation and spore germination; conditions: for Growth mm-in-diam, on agar: nitrogen source 0.3296 g/L nitrogen; for Growth mm-in-diam, on agar / growth in liquit culture (visual rating) / Sporulation 10^3/cm^2, on agar: 5 weeks; for Spore germination %, on agar / growth in liquit culture (visual rating) / Sporulation 10^3/cm^2, on agar: nitrogen source

| Structure (SMILES) | Growth rate mm-in-diam, on agar (Hirsutella rhossiliensis [1]; isolate ATCC46487) [mm-in-diam] | Growth rate mm-in-diam, on agar (Hirsutella rhossiliensis [1]; isolate JA16-1) [mm-in-diam] | Growth rate mm-in-diam, on agar (Hirsutella rhossiliensis [1]; isolate OWVT-1) [mm-in-diam] | Spore germination %, on agar (Hirsutella rhossiliensis [1]; isolate ATCC46487) [%] | Sporulation 10^3/cm^2, on agar (Hirsutella rhossiliensis [1]; isolate ATCC46487) | Spore germination %, on agar (Hirsutella rhossiliensis [1]; isolate JA16-1) [%] | Sporulation 10^3/cm^2, on agar (Hirsutella rhossiliensis [1]; isolate JA16-1) | growth in liquit culture (visual rating) (Hirsutella rhossiliensis [1]; isolate JA16-1) | Spore germination %, on agar (Hirsutella rhossiliensis [1]; isolate OWVT-1) [%] | Sporulation 10^3/cm^2, on agar (Hirsutella rhossiliensis [1]; isolate OWVT-1) | Growth mm-in-diam, on agar (Hirsutella rhossiliensis [2]; isolate ATCC46487) [mm-in-diam] | Growth mm-in-diam, on agar (Hirsutella rhossiliensis [2]; isolate JA16-1) [mm-in-diam] | Growth mm-in-diam, on agar (Hirsutella rhossiliensis [2]; isolate OWVT-1) | Spore germination %, on agar (Hirsutella rhossiliensis [2]; isolate ATCC46487) [%] | Spore germination %, on agar (Hirsutella rhossiliensis [2]; isolate JA16-1) [%] | Spore germination %, on agar (Hirsutella rhossiliensis [2]; isolate OWVT-1) [%] | growth in liquit culture (visual rating) (Hirsutella rhossiliensis [2]; isolate OWVT-1) | other results |
| --- | --- | --- | --- | --- | --- | --- | --- | --- | --- | --- | --- | --- | --- | --- | --- | --- | --- | --- |
| O[C@H]1[C@H](O)[C@@H](O)[C@H](O)[C@@H](O)[C@H]1O [myo-inositol] | 40.8 | 18.3 | 31.5 | 72.2 | 41.9 10^3/cm^2 | 84.4 | 16.7 10^3/cm^2 | I | 64.4 | 8.3 10^3/cm^2 |  |  |  |  |  |  |  |  |
| Cc1ncc(CO)c(CO)c1O [Pyridoxine (VB6)] | 40.5 | 17.2 | 29.5 | 74.4 | 31.1 10^3/cm^2 | 90.0 | 16.5 10^3/cm^2 | I | 50.0 | 13.0 10^3/cm^2 |  |  |  |  |  |  |  | growth in liquit culture (visual rating) (Hirsutella rhossiliensis [1]; isolate ATCC46487): III (III = hyphae growth or colonies form a pellet, less than 2.5 ml) |
| Cc1cc2nc3c(=O)[nH]c(=O)nc-3n(C[C@H](O)[C@H](O)[C@H](O)CO)c2cc1C [Riboflavin, UPS (VB2)] | 41.0 | 20.2 | 30.2 | 91.1 | 30.6 10^3/cm^2 | 85.6 | 13.2 10^3/cm^2 | I | 60.0 | 11.1 10^3/cm^2 |  |  |  |  |  |  |  | growth in liquit culture (visual rating) (Hirsutella rhossiliensis [1]; isolate OWVT-1): I |
| Nc1nc2ncc(CNc3ccc(C(=O)N[C@@H](CCC(=O)O)C(=O)O)cc3)nc2c(=O)[nH]1 [Folic acid] | 39.3 | 19.7 | 28.7 | 82.2 | 59.7 10^3/cm^2 | 87.8 | 24.2 10^3/cm^2 | I | 61.1 | 15.4 10^3/cm^2 |  |  |  |  |  |  |  |  |
| Cc1ncc(C[n+]2csc(CCO)c2C)c(N)n1 [Thiamine (VB1)] | 38.5 | 20.3 | 24.7 | 75.6 | 30.1 10^3/cm^2 | 91.1 | 30.4 10^3/cm^2 |  | 58.9 | 15.7 10^3/cm^2 |  |  |  |  |  |  |  |  |
| CC(C)(CO)C(O)C(=O)NCCC(=O)O (racemic) [DL-pantothenic acid] | 39.5 | 18.8 | 29.3 | 72.2 | 28.6 10^3/cm^2 | 88.9 | 17.1 10^3/cm^2 | I | 55.6 | 9.9 10^3/cm^2 |  |  |  |  |  |  |  |  |
| O=C(O)[C@@H]1CCCN1 [L-proline] |  |  |  |  |  |  |  |  |  |  | 47.2 | 17.0 | 23.8 mm-in-diam | 86.7 | 86.7 | 60.0 | III (III = hyphae growth or colonies form a pellet, less than 2.5 ml) |  |
| N[C@@H](Cc1ccc(O)cc1)C(=O)O [L-tyrosine] |  |  |  |  |  |  |  |  |  |  |  |  |  | 91.1 | 86.7 | 67.8 |  |  |
| N[C@@H](Cc1c[nH]cn1)C(=O)O [L-Histidine] |  |  |  |  |  |  |  |  |  |  | 36.3 | 8.5 | 12.8 mm-in-diam | 82.2 | 82.2 | 65.6 | III (III = hyphae growth or colonies form a pellet, less than 2.5 ml) | Sporulation 10^3/cm^2, on agar (Hirsutella rhossiliensis [2]; isolate ATCC46487): 1.8 10^3/cm^2; Sporulation 10^3/cm^2, on agar (Hirsutella rhossiliensis [2]; isolate JA16-1): 3.4 10^3/cm^2; Sporulation 10^3/cm^2, on agar (Hirsutella rhossiliensis [2]; isolate OWVT-1): 2.1 10^3/cm^2 |
| NC(N)=O [Urea] |  |  |  |  |  |  |  |  |  |  | 43.5 | 14.0 | 16.7 mm-in-diam | 91.1 | 85.6 | 64.4 |  | growth in liquit culture (visual rating) (Hirsutella rhossiliensis [2]; isolate ATCC46487): IV (IV = the pellet diameter larger than 1 cm, but the total volume distribution less than 5 ml) |
| N[C@@H](CC(=O)O)C(=O)O [L-Aspartic acid] |  |  |  |  |  |  |  |  |  |  | 43.8 | 13.3 | 16.8 mm-in-diam | 93.3 | 90.0 | 53.3 | III (III = hyphae growth or colonies form a pellet, less than 2.5 ml) | growth in liquit culture (visual rating) (Hirsutella rhossiliensis [2]; isolate JA16-1): IV (IV = the pellet diameter larger than 1 cm, but the total volume distribution less than 5 ml) |
| CSCCC(N)C(=O)O (racemic) [DL-Methionine] |  |  |  |  |  |  |  |  |  |  | 11.7 | 0.0 | 0.0^ mm-in-diam | 74.4 | 70.0 | 63.3 | I | Sporulation 10^3/cm^2, on agar (Hirsutella rhossiliensis [2]; isolate ATCC46487): 3.2 10^3/cm^2; growth in liquit culture (visual rating) (Hirsutella rhossiliensis [2]; isolate ATCC46487): III (III = hyphae growth or colonies form a pellet, less than 2.5 ml); Sporulation 10^3/cm^2, on agar (Hirsutella rhossiliensis [2]; isolate JA16-1): 10.8 10^3/cm^2; growth in liquit culture (visual rating) (Hirsutella rhossiliensis [2]; isolate JA16-1): I; Sporulation 10^3/cm^2, on agar (Hirsutella rhossiliensis [2]; isolate OWVT-1): 0.0 10^3/cm^2 |
| Nc1ccc(C(=O)O)cc1 [p-Amino-benzoic acid (PABA)] | 41.5 | 16.7 | 28.3 | 82.2 | 29.9 10^3/cm^2 | 84.4 | 35.1 10^3/cm^2 | I | 51.1 | 14.2 10^3/cm^2 |  |  |  |  |  |  |  |  |
| NC(CO)C(=O)O (racemic) [DL-Serine] |  |  |  |  |  |  |  |  |  |  | 45.3 | 10.2 | 17.2 mm-in-diam | 84.4 | 87.8 | 72.2 | IV (IV = the pellet diameter larger than 1 cm, but the total volume distribution less than 5 ml) | growth in liquit culture (visual rating) (Hirsutella rhossiliensis [2]; isolate JA16-1): III (III = hyphae growth or colonies form a pellet, less than 2.5 ml) |
| NC(CCC(=O)O)C(=O)O (racemic) [DL-Glutamic acid] |  |  |  |  |  |  |  |  |  |  | 40.8 | 12.8 | 18.7 mm-in-diam | 74.4 | 90.0 | 48.9 | III (III = hyphae growth or colonies form a pellet, less than 2.5 ml) |  |
